These results are taken from patent US20080138397A1, “PROCESSES FOR TASTE-MASKING OF INHALED FORMULATIONS” (Aradigm Corporation, priority 2006, published 2008).

SMILES strings stand for the structures.

For data set [1] the following is noted: oral administration; extensive clearance via first pass metabolism; cited from earlier work.
For data set [2] the following is noted: cited from earlier work.
Data set [3] in a line: Human clinical trials of AERx-inhaled HCQ, pharmacokinetics blood sample analysis. In kind it is in vivo. The settings on record: blood samples. From the text:
Hydroxychloroquine or HCQ, known as a therapeutic for asthma and other respiratory diseases (U.S. Pat. No. 6,572,858), and administered by the inhalation route, is characterized by unpleasant taste. Formulation of HCQ, either singularly, or in combination, using one or more of the methods described above increases the therapeutic benefit of inhaled HCQ to treat asthma and other respiratory diseases. […] Thus, it would be an improvement to develop a formulation that provides a sustained release of HCQ in the lung, prolonging interaction of HCQ with the desired receptors in the lung tissue. Formulation strategies include encapsulation in liposomes or use of polymeric microspheres or nanospheres that slowly degrade and release HCQ. Other formulation strategies outlined previously can also be envisioned for such a formulation.

What is called half-life is the time needed for the level to fall by half in the phase considered. Take `CCCc1cc2c(s1)CN[C@@H]1CCc3cc(OC(C)=O)c(OC(C)=O)cc3[C@@H]21` [ABT-431]: in data set [1], the oral bioavailability result is recorded as “less than 4%”. In data set [2] (in vivo), the half-life was 2 to 3 h. In data set [2] (inhalation delivery), the absorption time entry is reported as “less than 10 minutes” and the tolerability result was “poor”.

On to `CCN(CCO)CCCC(C)Nc1ccnc2cc(Cl)ccc12` (centres unmarked) [HCQ, Hydroxychloroquine], for which the “absorption from the lung” value in data set [3] is listed as “rapidly absorbed”.
